# Assay results published in patent US20240301501A1, “A METHOD FOR ASSESSING THE POTENTIAL EFFECT OF THERAPEUTICS ON AN INDIVIDUAL” (AGENCY FOR SCIENCE TECHNOLOGY AND RESEARCH, priority 2022, published 2024).
# Read-outs that look alike come from different tables or passages of the source.
# Legend:
# [1] = Measurement of tamoxifen metabolites in finger-prick blood (VAMS, UPLC-MS/MS); type: in vivo, human (Indonesian ER+ breast cancer patients); conditions: for range of metabolite levels before dose adjustment / range of metabolite levels after dose adjustment: IM patients (n=26); for range of metabolite levels before dose adjustment: tamoxifen 20 mg daily; for range of metabolite levels after dose adjustment: tamoxifen 40 mg daily for two months; for concentration at 8 weeks: human, whole blood (finger-prick, VAMS), oral, 40 mg daily, read-out: range of metabolite levels after dose adjustment
# Experimental: Finger-prick blood sample was obtained using Volumetric Absorptive Microsampling (VAMS) technique. VAMS extraction was performed in methanol by sonication-assisted extraction method for 25 minutes after 2 hours of VAMS drying. Separation was carried out using Acquity UPLC BEH C1s column (2.1×100 mm; 1.7 μm), with a flow rate of 0.2 mL/minute, and the mobile phase gradient of formic acid 0.1% combined with formic acid 0.1% in acetonitrile for 5 minutes. The UPLC-MS/MS Waters Xevo TQD Triple Quadrupole with MassLynx Software controller (Waters, Milford, USA) was employed in metabolites measurement. Mass detection was carried out utilizing Triple Quadrupole (TOD) with Multiple Reaction Monitoring (MRM) analysis modes and an electrospray ionization source using positive mode. The method was developed in the Bioavailability and Bioequivalence Laboratory of Universitas Indonesia and validated according to FDA and EMA guidelines. The multiple reaction monitoring (MRM) value were set at m/z 372.28>72.22 for TAM; 374.29>58.22 for END; 388.29>72.19 for 4-HT; 358.22>58.09 for NDT; and 260.20>116.20 for propranolol as the internal standard.
# (§1) This group of patients were determined based on clinical judgement according to the available guidelines by The National Surgical Oncologist Organization and Ministry of Health in Indonesia (Komite Penanggulangan Kanker Nasional, n.d.), National Comprehensive Cancer Network (NCCN, 2021), and British Columbia Cancer Agency.
# (§2) Data and statistical analysis were performed using Microsoft® Excel® for Microsoft 365 and R version 4.0.3. Deviation from Hardy-Weinberg equilibrium was performed on the haplotype frequencies using the chi-square statistical test, where Bonferonni correction was applied to determine the p-value threshold for significant deviation. Analysis of Variance (ANOVA) test was used to see if metabolite levels distribution at baseline were statistically different across all metabolites, followed by a paired T-test between each pair of metabolites when significance was found. Distribution of metabolite levels before and after dose adjustment was compared using a T-test, and the same test was used to compare the distribution of metabolite levels in IMs post-dose adjustment against NMs (baseline). Concerning symptoms related to endocrine therapy post-dose adjustment on IMs were compared against NMs. Chi-square test was performed per symptom to check for the difference between the two groups.
# [2] = cited from earlier work
# [3] = Endocrine symptoms / side effects of tamoxifen therapy, FACT-ES questionnaire; type: in vivo, human (Indonesian ER+ breast cancer patients)
# Experimental: as §1, §2
# [4] = CYP2D6 Intermediate Metabolizer (N = 61), baseline
# [5] = CYP2D6 Normal Metabolizer (N = 81), baseline
# [6] = CYP2D6 Poor Metabolizer (N = 2), baseline
# [7] = IM participants, 40 mg tamoxifen daily (N = 22), eight weeks after dose adjustment
# [8] = IM participants, 40 mg tamoxifen daily, eight weeks after dose adjustment
# [9] = IMs, 40 mg tamoxifen daily, n=26
# [10] = NM participants, 20 mg tamoxifen daily (N = 31)
# [11] = NMs, 20 mg tamoxifen daily, n=31
compound,measurement,setting,value
4-hydroxytamoxifen,range of metabolite levels before dose adjustment,[1],1.5 to 9.31 ng/mL
same,range of metabolite levels after dose adjustment,[1],3.34 to 12.99 ng/mL
CC/C(=C(\c1ccc(O)cc1)c1ccc(OCCN(C)C)cc1)c1ccccc1 [4OH-tam],"Peripheral Whole Blood Concentration, Median",[1]; [4],3.27 ng/mL
same,"Peripheral Whole Blood Concentration, Range",[1]; [4],1.5 to 9.31 ng/mL
same,"Peripheral Whole Blood Concentration, Median",[1]; [5],3.07 ng/mL
same,"Peripheral Whole Blood Concentration, Range",[1]; [5],1.5 to 7.66 ng/mL
same,"Peripheral Whole Blood Concentration, Median",[1]; [6],3.24 ng/mL
same,"Peripheral Whole Blood Concentration, Range",[1]; [6],3.06 to 3.43 ng/mL
CC/C(=C(\c1ccccc1)c1ccc(OCCNC)cc1)c1ccccc1 [N-desmethyltamoxifen],range of metabolite levels before dose adjustment,[1],77.61 to 337.29 ng/mL
same,range of metabolite levels after dose adjustment,[1],236.8 to 501.9 ng/mL
CC/C(=C(\c1ccccc1)c1ccc(OCCNC)cc1)c1ccccc1 [ND-tam],"Peripheral Whole Blood Concentration, Median",[1]; [4],241.55 ng/mL
same,"Peripheral Whole Blood Concentration, Range",[1]; [4],77.61 to 337.29 ng/mL
same,"Peripheral Whole Blood Concentration, Median",[1]; [5],240.59 ng/mL
same,"Peripheral Whole Blood Concentration, Range",[1]; [5],80.63 to 321.88 ng/mL
same,"Peripheral Whole Blood Concentration, Median",[1]; [6],276.45 ng/mL
same,"Peripheral Whole Blood Concentration, Range",[1]; [6],212.5 to 340.41 ng/mL
"CC/C(=C(\c1ccc(O)cc1)c1ccc(OCCNC)cc1)c1ccccc1 [endoxifen, 4-hydroxy-N-desmethyltamoxifen]",average endoxifen level of IMs,[2]; previous study,8.1 ng/mL
same,range of endoxifen level,[2]; study in Singaporean population,1.74 to 42.8 ng/mL
same,range of endoxifen level,[2]; study in Swedish population,2.3 to 16 ng/mL
same,"Peripheral Whole Blood Concentration, Median",[1]; [4],8.33 ng/mL
same,"Peripheral Whole Blood Concentration, Range",[1]; [4],3.17 to 22.97 ng/mL
same,"Peripheral Whole Blood Concentration, Median",[1]; [5],11.98 ng/mL
same,"Peripheral Whole Blood Concentration, Range",[1]; [5],3.55 to 34.77 ng/mL
same,"Peripheral Whole Blood Concentration, Median",[1]; [6],4.52 ng/mL
same,"Peripheral Whole Blood Concentration, Range",[1]; [6],3.94 to 5.11 ng/mL
same,range of metabolite levels before dose adjustment,[1],3.17 to 22.97 ng/mL
same,endoxifen levels in NMs at baseline,"[1]; NM patients (n=81), tamoxifen 20 mg/day, baseline",3.55 to 34.77 ng/mL
same,concentration at 8 weeks,[1],7.68 to 23.4 ng/mL
same,average endoxifen level of IMs,"[1]; this study, IMs",9.6 ng/mL
CC/C(=C(\c1ccccc1)c1ccc(OCCN(C)C)cc1)c1ccccc1 [tamoxifen],toxicity or side effects on dose escalation,"[3]; 40 mg daily versus 20 mg daily, eight weeks after dose adjustment",did not increase potential toxicity or side effects
same,Cold Sweats: Patients reported side effect (%),[3]; [7],19.23%
same,Diarrhea: Patients reported side effect (%),[3]; [7],0.00%
same,Headaches: Patients reported side effect (%),[3]; [7],53.85%
same,Hot Flashes: Patients reported side effect (%),[3]; [7],50.00%
same,Lightheaded (dizzy): Patients reported side effect (%),[3]; [7],34.62%
same,Mood swings: Patients reported side effect (%),[3]; [7],65.38%
same,Pain in joints: Patients reported side effect (%),[3]; [7],50.00%
same,Pain or discomfort with intercourse: Patients reported side effect (%),[3]; [7],3.85%
same,Breast sensitivity/tenderness: Patients reported side effect (%),[3]; [8],53.85%
same,Irritable: Patients reported side effect (%),[3]; [8],61.54%
same,Lost interest in sex: Patients reported side effect (%),[3]; [8],15.38%
same,Night sweats: Patients reported side effect (%),[3]; [8],26.92%
same,Vaginal bleeding or spotting: Patients reported side effect (%),[3]; [8],23.08%
same,Vaginal discharge: Patients reported side effect (%),[3]; [8],42.31%
same,Vaginal dryness: Patients reported side effect (%),[3]; [8],11.54%
same,Vaginal itching/irritation: Patients reported side effect (%),[3]; [8],15.38%
same,Vomiting: Patients reported side effect (%),[3]; [8],3.85%
same,Weight gain: Patients reported side effect (%),[3]; [8],65.38%
same,"breast sensitivity or tenderness, participants reporting",[3]; [9],53.85%
same,"cold sweats, participants reporting",[3]; [9],19.23%
same,"headaches, participants reporting",[3]; [9],53.85%
same,"hotflush, participants reporting",[3]; [9],50%
same,"irritability, participants reporting",[3]; [9],61.54%
same,"lightheaded/dizziness, participants reporting",[3]; [9],34.62%
same,"lost interest in sex, participants reporting",[3]; [9],15.38%
same,"mood swings, participants reporting",[3]; [9],65.83%
same,"night sweats, participants reporting",[3]; [9],26.92%
same,"pain in joints, participants reporting",[3]; [9],50%
same,"pain or discomfort during intercourse, participants reporting",[3]; [9],3.85%
same,"vaginal bleeding or spotting, participants reporting",[3]; [9],23.08%
same,"vaginal discharge, participants reporting",[3]; [9],42.31%
same,"vaginal dryness, participants reporting",[3]; [9],11.54%
same,"vaginal itching or irritation, participants reporting",[3]; [9],15.38%
same,"vomiting, participants reporting",[3]; [9],3.85%
same,"weight gain, participants reporting",[3]; [9],65.83%
same,"diarrhea, participants reporting","[3]; IMs, 40 mg tamoxifen daily, post-dose adjustment",No post-dose adjustment participants reported diarrhea
same,Breast sensitivity/tenderness: Patients reported side effect (%),[3]; [10],41.94%
same,Cold Sweats: Patients reported side effect (%),[3]; [10],12.90%
same,Diarrhea: Patients reported side effect (%),[3]; [10],3.23%
same,Headaches: Patients reported side effect (%),[3]; [10],29.03%
same,Hot Flashes: Patients reported side effect (%),[3]; [10],35.48%
same,Irritable: Patients reported side effect (%),[3]; [10],58.06%
same,Lightheaded (dizzy): Patients reported side effect (%),[3]; [10],35.48%
same,Lost interest in sex: Patients reported side effect (%),[3]; [10],64.52%
same,Mood swings: Patients reported side effect (%),[3]; [10],74.19%
same,Night sweats: Patients reported side effect (%),[3]; [10],29.03%
same,Pain in joints: Patients reported side effect (%),[3]; [10],67.74%
same,Pain or discomfort with intercourse: Patients reported side effect (%),[3]; [10],51.61%
same,Vaginal bleeding or spotting: Patients reported side effect (%),[3]; [10],16.13%
same,Vaginal dryness: Patients reported side effect (%),[3]; [10],32.26%
same,Vaginal itching/irritation: Patients reported side effect (%),[3]; [10],22.58%
same,Vomiting: Patients reported side effect (%),[3]; [10],6.45%
same,Weight gain: Patients reported side effect (%),[3]; [10],64.52%
same,"breast sensitivity or tenderness, respondents reporting",[3]; [11],41.94%
same,"cold sweats, respondents reporting",[3]; [11],12.9%
same,"diarrhea, respondents reporting",[3]; [11],3.23%
same,"headaches, respondents reporting",[3]; [11],29.03%
same,"hotflush, respondents reporting",[3]; [11],35.48%
same,"irritability, respondents reporting",[3]; [11],58.06%
same,"lightheaded/dizziness, respondents reporting",[3]; [11],35.48%
same,"lost interest in sex, respondents reporting",[3]; [11],64.52%
same,"mood swings, respondents reporting",[3]; [11],74.19%
same,"night sweats, respondents reporting",[3]; [11],29.03%
same,"pain in joints, respondents reporting",[3]; [11],67.74%
same,"pain or discomfort during intercourse, respondents reporting",[3]; [11],51.61%
same,"vaginal bleeding or spotting, respondents reporting",[3]; [11],16.13%
same,"vaginal dryness, respondents reporting",[3]; [11],32.26%
same,"vaginal itching or irritation, respondents reporting",[3]; [11],22.58%
same,"vomiting, respondents reporting",[3]; [11],6.45%
same,"thrombophlebitis, thrombosis, endometriosis, and endometrial cancer","[3]; observed population, short follow up",none of these side effects were observed
same,"Peripheral Whole Blood Concentration, Median",[1]; [4],81.72 ng/mL
same,"Peripheral Whole Blood Concentration, Range",[1]; [4],14.22 to 210.39 ng/mL
same,"Peripheral Whole Blood Concentration, Median",[1]; [5],77.46 ng/mL
same,"Peripheral Whole Blood Concentration, Range",[1]; [5],31.22 to 170.82 ng/mL
same,"Peripheral Whole Blood Concentration, Median",[1]; [6],91.49 ng/mL
same,"Peripheral Whole Blood Concentration, Range",[1]; [6],67.49 to 115.48 ng/mL
same,range of metabolite levels before dose adjustment,[1],14.22 to 210.39 ng/mL
same,concentration at 8 weeks,[1],80.6 to 255 ng/mL
